Test results: the NIST ThermoML archive (doi:10.1016/j.jct.2014.12.022)
± gives the expanded uncertainty stated by the source.

Experiments:
[1] = 101.33 kPa, Liquid; for speed of sound: Sing-around technique in a fixed-path interferometer; for mass density: Vibrating tube method
[2] = molar heat capacity at constant pressure; conditions: 101.33 kPa, Liquid, Small sample (50 mg) DSC

SMILES | speed of sound ([1]; 293.15 K) [m/s] | mass density ([1]; 293.15 K) [kg/m3] | speed of sound ([1]; 298.15 K) [m/s] | mass density ([1]; 298.15 K) [kg/m3] | speed of sound ([1]; 303.15 K) [m/s] | mass density ([1]; 303.15 K) [kg/m3] | molar heat capacity at constant pressure ([2]; 293.15 K) [J/K/mol] | molar heat capacity at constant pressure ([2]; 298.15 K) [J/K/mol] | molar heat capacity at constant pressure ([2]; 303.15 K) [J/K/mol]
CN1CCCC1=O [N-methylpyrrolidone] | 1565.6 ± 1.6 | 1033.3 ± 1 | 1546.1 ± 1.6 | 1028.3 ± 1 | 1527.3 ± 1.6 | 1023.5 ± 1 | 165.44 ± 3.3 | 166.22 ± 3.3 | 166.92 ± 3.3
c1ccccc1 [benzene] | 1322.6 ± 1.5 | 878.89 ± 1 | 1299.4 ± 1.5 | 873.54 ± 1 | 1276.2 ± 1.5 | 868.2 ± 1 | 133.58 ± 2.7 | 135.28 ± 2.7 | 136.58 ± 2.7
